The supplement of paper PMC11208160

test: recombinant UMI read abundance after kanamycin selection (control-corrected) (log10(CPM+1)); higher = more efficient recombination; extreme values may be limits of the assay; sequences stand for … in AGTGCAGAGAAAATCGGCCAGTTTTCTCTGCCTGCAGTCCGCATGCCGTGGGACCCCTTGGGTTCTAACCTGTTGCCTAGATTTATGCAGCGGACTGCCTTTCTCCCAAAGTGATAAACCGG…AGGTTGGTTTCACT; site = the 11-nt donor
Summary of the method: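 In a pooled Escherichia coli screen for the IS621 bridge recombinase, donor and donor-binding-loop pairs were each placed with a 12-nt UMI on a plasmid bearing a promoterless kanamycin gene. This library was co-electroporated with a target plasmid encoding a fixed target and T7-inducible recombinase, and cells were plated either on IPTG (0.07 mM) plus kanamycin or without selection, in two replicates each. Recombinant UMIs were PCR-amplified across the donor–target junction and sequenced, and counts were converted to CPM, averaged over replicates, scaled by control-derived factors and reported as log10(CPM+1).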

Row | Sequence | recombinant UMI read abundance (log10)
1 | GTATGCACATGGACCGGTTTTCCCGGTAATCCGTATTTGTA (site GTATGCGCTTA) | 0.376
2 | GTATGCACATGGACCGGTTTTCCCGGTAATCCGTATTTGTA (site GTATGCTCTTA) | 1.19
3 | GTATGCACATGGACCGGTTTTCCCGGTAATCCGTATTTGTA (site GTATGGACTTA) | 0.0258
4 | GTATGCACATGGACCGGTTTTCCCGGTAATCCGTATTTGTA (site GTATGTACTTA) | 0.274
5 | GTATGCACATGGACCGGTTTTCCCGGTAATCCGTATTTGTA (site GTATTCACTTA) | 1.3
6 | GTATGCACATGGACCGGTTTTCCCGGTAATCCGTATTTGTA (site GTCTGCACTTA) | 0.0377
7 | GTATGCACATGGACCGGTTTTCCCGGTAATCCGTATTTGTA (site GTGTGCACTTA) | 0.384
8 | GTATGCACATGGACCGGTTTTCCCGGTAATCCGTATTTGTA (site GTTTGCACTTA) | 0
9 | GTATGCACATGGACCGGTTTTCCCGGTAATCCGTATTTGTA (site TTATGCACTTA) | 0.185
10 | GTATGTACATGGACCGGTTTTCCCGGTAATCCGTATTTGTA (site GTATGAACTTA) | 1.74
11 | GTATGTACATGGACCGGTTTTCCCGGTAATCCGTATTTGTA (site GTATGCACTTA) | 1.61
12 | GTATGTACATGGACCGGTTTTCCCGGTAATCCGTATTTGTA (site GTATGGACTTA) | 0.499
13 | GTATGTACATGGACCGGTTTTCCCGGTAATCCGTATTTGTA (site GTATGTACTTA) | 2.09
14 | GTATGTCCATGGACCGGTTTTCCCGGTAATCCGTATTTGAG (site GTATGTCCTCT) | 0.428
15 | GTATTAACATGGACCGGTTTTCCCGGTAATCCGTATTTGTG (site GTATTAACTCA) | 2.02
16 | GTCACGCCATGGACCGGTTTTCCCGGTAATCCGTATTTGTA (site GACACGCCTTA) | 0.00466
17 | GTCACGCCATGGACCGGTTTTCCCGGTAATCCGTATTTGTA (site GCCACGCCTTA) | 0
18 | GTCACGCCATGGACCGGTTTTCCCGGTAATCCGTATTTGTA (site GGCACGCCTTA) | 0.00905
19 | GTCACGCCATGGACCGGTTTTCCCGGTAATCCGTATTTGTA (site GTCACGCCTTA) | 0.476
20 | GTCACGGCATGGACCGGTTTTCCCGGTAATCCGTATTTGAA (site GTCACGGCTTT) | 1.2
21 | GTCACGTCATGGACCGGTTTTCCCGGTAATCCGTATTTGCG (site GTCACGTCTCG) | 2.07
22 | GTCAGGACATGGACCGGTTTTCCCGGTAATCCGTATTTGTC (site GTCAGGACTGA) | 2.38
23 | GTCATGGCATGGACCGGTTTTCCCGGTAATCCGTATTTGAA (site GTCATGGCTTT) | 1.99
24 | GTCCCATCATGGACCGGTTTTCCCGGTAATCCGTATTTGCG (site GTCCCATCTCG) | 1.31
25 | GTCCCCACATGGACCGGTTTTCCCGGTAATCCGTATTTGTA (site GTCCCCACTTA) | 1.14

Row | Sequence | recombinant UMI read abundance (log10)
26 | GTCCGACCATGGACCGGTTTTCCCGGTAATCCGTATTTGCA (site GTCCGACCTTG) | 0
27 | GTCCGAGCATGGACCGGTTTTCCCGGTAATCCGTATTTGCA (site GTACGAGCTTG) | 0
28 | GTCCGAGCATGGACCGGTTTTCCCGGTAATCCGTATTTGCA (site GTCCGAGCTTG) | 1.59
29 | GTCCGAGCATGGACCGGTTTTCCCGGTAATCCGTATTTGCA (site GTGCGAGCTTG) | 0.297
30 | GTCCGAGCATGGACCGGTTTTCCCGGTAATCCGTATTTGCA (site GTTCGAGCTTG) | 0
31 | GTCCTGCCATGGACCGGTTTTCCCGGTAATCCGTATTTGGC (site GTCCTGCCTGC) | 0
32 | GTCGAATCATGGACCGGTTTTCCCGGTAATCCGTATTTGGT (site GTCGAATCTAC) | 2.07
33 | GTCGCCCCATGGACCGGTTTTCCCGGTAATCCGTATTTGGC (site GTCGCCCCTGC) | 0
34 | GTCGCGTCATGGACCGGTTTTCCCGGTAATCCGTATTTGGA (site GTCGCGTCTTC) | 1.24
35 | GTCGGCCCATGGACCGGTTTTCCCGGTAATCCGTATTTGTG (site GTCGGCCCTCA) | 0.00361
36 | GTCGGGGCATGGACCGGTTTTCCCGGTAATCCGTATTTGTT (site GTCGGGGCTAA) | 0.949
37 | GTCGTATCATGGACCGGTTTTCCCGGTAATCCGTATTTGTC (site GTCGTATCTGA) | 2.7
38 | GTCTAACCATGGACCGGTTTTCCCGGTAATCCGTATTTGTC (site GTCTAACCTGA) | 0
39 | GTCTACACATGGACCGGTTTTCCCGGTAATCCGTATTTGAG (site GTCTACACTCT) | 0.832
40 | GTCTACACATGGACCGGTTTTCCCGGTAATCCGTATTTGCT (site ATCTACACTAG) | 1.33
41 | GTCTACACATGGACCGGTTTTCCCGGTAATCCGTATTTGCT (site CTCTACACTAG) | 1.44
42 | GTCTACACATGGACCGGTTTTCCCGGTAATCCGTATTTGCT (site GTCTACACTAG) | 2.05
43 | GTCTACACATGGACCGGTTTTCCCGGTAATCCGTATTTGCT (site TTCTACACTAG) | 1.44
44 | GTCTAGACATGGACCGGTTTTCCCGGTAATCCGTATTTGCA (site GTCTAGACTTG) | 2.13
45 | GTCTGCCCATGGACCGGTTTTCCCGGTAATCCGTATTTGCG (site GTCTGCCCTCG) | 0.0315
46 | GTCTTCCCATGGACCGGTTTTCCCGGTAATCCGTATTTGCA (site GTCTTCCCTTG) | 0
47 | GTGAAGACATGGACCGGTTTTCCCGGTAATCCGTATTTGCA (site AGGAAGACTTG) | 1.26
48 | GTGAAGACATGGACCGGTTTTCCCGGTAATCCGTATTTGCA (site GTGAAGACTTG) | 2.72
49 | GTGACAACATGGACCGGTTTTCCCGGTAATCCGTATTTGAC (site GTGACAACTGT) | 2.91
50 | GTGACACCATGGACCGGTTTTCCCGGTAATCCGTATTTGTT (site GTGACACCTAA) | 0.00775

Row | Sequence | recombinant UMI read abundance (log10)
51 | GTGACCCCATGGACCGGTTTTCCCGGTAATCCGTATTTGCC (site GTGACCCCTGG) | 1.83
52 | GTGCAAACATGGACCGGTTTTCCCGGTAATCCGTATTTGTG (site GTGCAAACTCA) | 2.04
53 | GTGCATCCATGGACCGGTTTTCCCGGTAATCCGTATTTGCA (site GTGCATCCTTG) | 1.03
54 | GTGCATGCATGGACCGGTTTTCCCGGTAATCCGTATTTGGA (site GTGCATGCTAC) | 0.00401
55 | GTGCATGCATGGACCGGTTTTCCCGGTAATCCGTATTTGGA (site GTGCATGCTCC) | 0.296
56 | GTGCATGCATGGACCGGTTTTCCCGGTAATCCGTATTTGGA (site GTGCATGCTGC) | 0
57 | GTGCATGCATGGACCGGTTTTCCCGGTAATCCGTATTTGGA (site GTGCATGCTTC) | 1.28
58 | GTGCATGCATGGACCGGTTTTCCCGGTAATCCGTATTTGGC (site GTGCATGCTAC) | 0.31
59 | GTGCATGCATGGACCGGTTTTCCCGGTAATCCGTATTTGGC (site GTGCATGCTCC) | 0
60 | GTGCATGCATGGACCGGTTTTCCCGGTAATCCGTATTTGGC (site GTGCATGCTGC) | 2.28
61 | GTGCATGCATGGACCGGTTTTCCCGGTAATCCGTATTTGGC (site GTGCATGCTTC) | 0.89
62 | GTGCATGCATGGACCGGTTTTCCCGGTAATCCGTATTTGGT (site ATGCATGCTAC) | 0.986
63 | GTGCATGCATGGACCGGTTTTCCCGGTAATCCGTATTTGGT (site CTGCATGCTAC) | 0.457
64 | GTGCATGCATGGACCGGTTTTCCCGGTAATCCGTATTTGGT (site GAGCATGCTAC) | 0.0372
65 | GTGCATGCATGGACCGGTTTTCCCGGTAATCCGTATTTGGT (site GCGCATGCTAC) | 0.271
66 | GTGCATGCATGGACCGGTTTTCCCGGTAATCCGTATTTGGT (site GGGCATGCTAC) | 0.00487
67 | GTGCATGCATGGACCGGTTTTCCCGGTAATCCGTATTTGGT (site GTACATGCTAC) | 1.47
68 | GTGCATGCATGGACCGGTTTTCCCGGTAATCCGTATTTGGT (site GTCCATGCTAC) | 0.00812
69 | GTGCATGCATGGACCGGTTTTCCCGGTAATCCGTATTTGGT (site GTGAATGCTAC) | 0
70 | GTGCATGCATGGACCGGTTTTCCCGGTAATCCGTATTTGGT (site GTGCAAGCTAC) | 0.00542
71 | GTGCATGCATGGACCGGTTTTCCCGGTAATCCGTATTTGGT (site GTGCACGCTAC) | 0.586
72 | GTGCATGCATGGACCGGTTTTCCCGGTAATCCGTATTTGGT (site GTGCAGGCTAC) | 0.384
73 | GTGCATGCATGGACCGGTTTTCCCGGTAATCCGTATTTGGT (site GTGCATACTAC) | 1.69
74 | GTGCATGCATGGACCGGTTTTCCCGGTAATCCGTATTTGGT (site GTGCATCCTAC) | 0.318
75 | GTGCATGCATGGACCGGTTTTCCCGGTAATCCGTATTTGGT (site GTGCATGCTAA) | 0.0107
